# ChEMBL document CHEMBL3822390, “Synthesis, characterization and anti-cancer activity of a peptide nucleolipid bioconjugate” (2016)
# What was measured:
# Type in all cases: functional
# [1] = test system: M14; assay: Cytotoxicity against human M14 cells assessed as cell growth at 10 uM after 48 hrs by SRB assay; conditions: M14, 48 h, read-out: Activity
# [2] = Cytotoxicity against human HCT116 cells assessed as cell growth at 10 uM after 48 hrs by SRB assay; conditions: HCT-116, 48 h, read-out: Activity
# [3] = test system: MDA-MB-231; assay: Cytotoxicity against human MDA-MB-231 cells assessed as cell growth at 10 uM after 48 hrs by SRB assay; conditions: MDA-MB-231, 48 h, read-out: Activity
# [4] = test system: A498; assay: Cytotoxicity against human A498 cells assessed as cell growth at 10 uM after 48 hrs by SRB assay; conditions: A498, 48 h, read-out: Activity
# [5] = Cytotoxicity against human SW620 cells assessed as cell growth at 10 uM after 48 hrs by SRB assay; conditions: SW-620, 48 h, read-out: Activity
# [6] = test system: ACHN; assay: Cytotoxicity against human ACHN cells assessed as cell growth at 10 uM after 48 hrs by SRB assay; conditions: read-out: Activity
# [7] = Cytotoxicity against human SNB75 cells assessed as cell growth at 10 uM after 48 hrs by SRB assay; conditions: SNB-75, 48 h, read-out: Activity
# [8] = test system: NCI-H522; assay: Cytotoxicity against human NCI-H522 cells assessed as cell growth at 10 uM after 48 hrs by SRB assay; conditions: NCI-H522, 48 h, read-out: Activity
# [9] = Cytotoxicity against human NCI-ADR-RES cells assessed as cell growth at 10 uM after 48 hrs by SRB assay; conditions: read-out: Activity
# [10] = Cytotoxicity against human PC3 cells assessed as cell growth at 10 uM after 48 hrs by SRB assay; conditions: PC-3, 48 h, read-out: Activity
# [11] = test system: SK-MEL-28; assay: Cytotoxicity against human SK-MEL-28 cells assessed as cell growth at 10 uM after 48 hrs by SRB assay; conditions: SK-MEL-28, 48 h, read-out: Activity
# [12] = Cytotoxicity against human SF539 cells assessed as cell growth at 10 uM after 48 hrs by SRB assay; conditions: SF-539, 48 h, read-out: Activity
# [13] = test system: K562; assay: Cytotoxicity against human K562 cells assessed as cell growth at 10 uM after 48 hrs by SRB assay; conditions: K562, 48 h, read-out: Activity
# [14] = Cytotoxicity against human IGROV1 cells assessed as cell growth at 10 uM after 48 hrs by SRB assay; conditions: IGROV-1, 48 h, read-out: Activity
# [15] = Cytotoxicity against human SF268 cells assessed as cell growth at 7.25 uM after 48 hrs by SRB assay; conditions: SF-268, 48 h, read-out: Activity
# [16] = test system: M14; assay: Cytotoxicity against human M14 cells assessed as cell growth at 7.25 uM after 48 hrs by SRB assay; conditions: M14, 48 h, read-out: Activity
# [17] = Cytotoxicity against human HCT116 cells assessed as cell growth at 7.25 uM after 48 hrs by SRB assay; conditions: HCT-116, 48 h, read-out: Activity
# [18] = Cytotoxicity against human DU145 cells assessed as cell growth at 7.25 uM after 48 hrs by SRB assay; conditions: DU-145, 48 h, read-out: Activity
# [19] = Cytotoxicity against human Caki1 cells assessed as cell growth at 7.25 uM after 48 hrs by SRB assay; conditions: CAKI-1, 48 h, read-out: Activity
# [20] = test system: HT-29; assay: Cytotoxicity against human HT-29 cells assessed as cell growth at 7.25 uM after 48 hrs by SRB assay; conditions: HT-29, 48 h, read-out: Activity
# [21] = test system: MDA-MB-231; assay: Cytotoxicity against human MDA-MB-231 cells assessed as cell growth at 7.25 uM after 48 hrs by SRB assay; conditions: MDA-MB-231, 48 h, read-out: Activity
# [22] = Cytotoxicity against human UO31 cells assessed as cell growth at 7.25 uM after 48 hrs by SRB assay; conditions: UO-31, 48 h, read-out: Activity
# [23] = test system: SK-MEL-28; assay: Cytotoxicity against human SK-MEL-28 cells assessed as cell growth at 7.25 uM after 48 hrs by SRB assay; conditions: SK-MEL-28, 48 h, read-out: Activity
# [24] = test system: K562; assay: Cytotoxicity against human K562 cells assessed as cell growth at 7.25 uM after 48 hrs by SRB assay; conditions: K562, 48 h, read-out: Activity
# [25] = Cytotoxicity against human OVCAR3 cells assessed as cell growth at 7.25 uM after 48 hrs by SRB assay; conditions: OVCAR-3, 48 h, read-out: Activity
# [26] = test system: CCRF-CEM; assay: Cytotoxicity against human CCRF-CEM cells assessed as cell growth at 7.25 uM after 48 hrs by SRB assay; conditions: read-out: Activity
# [27] = Cytotoxicity against human UACC257 cells assessed as cell growth at 7.25 uM after 48 hrs by SRB assay; conditions: UACC-257, 48 h, read-out: Activity
# [28] = Cytotoxicity against human IGROV1 cells assessed as cell growth at 7.25 uM after 48 hrs by SRB assay; conditions: IGROV-1, 48 h, read-out: Activity
# [29] = Cytotoxicity against human MOLT4 cells assessed as cell growth at 7.25 uM after 48 hrs by SRB assay; conditions: MOLT-4, 48 h, read-out: Activity
# [30] = test system: NCI-H226; assay: Cytotoxicity against human NCI-H226 cells assessed as cell growth at 2.13 uM after 48 hrs by SRB assay; conditions: NCI-H226, 48 h, read-out: Activity
# [31] = Cytotoxicity against human COLO205 cells assessed as cell growth at 2.13 uM after 48 hrs by SRB assay; conditions: COLO 205, 48 h, read-out: Activity
# [32] = test system: KM12; assay: Cytotoxicity against human KM12 cells assessed as cell growth at 2.13 uM after 48 hrs by SRB assay; conditions: KM12, 48 h, read-out: Activity
# [33] = test system: SK-MEL-5; assay: Cytotoxicity against human SK-MEL-5 cells assessed as cell growth at 2.13 uM after 48 hrs by SRB assay; conditions: SK-MEL-5, 48 h, read-out: Activity
# [34] = Cytotoxicity against human HCT15 cells assessed as cell growth at 2.13 uM after 48 hrs by SRB assay; conditions: HCT-15, 48 h, read-out: Activity
# [35] = Cytotoxicity against human NCI-ADR-RES cells assessed as cell growth at 2.13 uM after 48 hrs by SRB assay; conditions: read-out: Activity
# [36] = test system: SK-MEL-28; assay: Cytotoxicity against human SK-MEL-28 cells assessed as cell growth at 2.13 uM after 48 hrs by SRB assay; conditions: SK-MEL-28, 48 h, read-out: Activity
# [37] = Cytotoxicity against human SF295 cells assessed as cell growth at 2.13 uM after 48 hrs by SRB assay; conditions: SF-295, 48 h, read-out: Activity
# [38] = Cytotoxicity against human UACC257 cells assessed as cell growth at 2.13 uM after 48 hrs by SRB assay; conditions: UACC-257, 48 h, read-out: Activity
# [39] = Cytotoxicity against human MOLT4 cells assessed as cell growth at 2.13 uM after 48 hrs by SRB assay; conditions: MOLT-4, 48 h, read-out: Activity
# [40] = test system: SK-MEL-2; assay: Cytotoxicity against human SK-MEL-2 cells assessed as cell growth at 2.13 uM after 48 hrs by SRB assay; conditions: SK-MEL-2, 48 h, read-out: Activity
structure (smiles),measurement,setting,value
CC(C)C[C@H](NC(=O)[C@H](CCCCN)NC(=O)[C@H](C)NC(=O)[C@H](CC(C)C)NC(=O)[C@H](CCCCN)NC(=O)[C@H](CCCCN)NC(=O)[C@H](C)NC(=O)[C@H](CC(C)C)NC(=O)[C@H](CCCCN)NC(=O)[C@H](C)NC(=O)[C@H](CC(C)C)NC(=O)[C@H](CCCCN)NC(=O)[C@@H](N)CC(=O)O)C(=O)N[C@@H](C)C(=O)N[C@@H](CCCCN)C(=O)N[C@@H](C)C(=O)N[C@@H](CCCCN)C(N)=O,growth at 10 µM,[1],108%
same,growth at 10 µM,[2],92.1%
same,growth at 10 µM,[3],109%
same,growth at 10 µM,[4],115%
same,growth at 10 µM,[5],106%
same,growth at 10 µM,[6],107%
same,growth at 10 µM,[7],98.8%
same,growth at 10 µM,[8],86.4%
same,growth at 10 µM,[9],105%
same,growth at 10 µM,[10],94.7%
same,growth at 10 µM,[11],104%
same,growth at 10 µM,[12],98%
same,growth at 10 µM,[13],99.8%
same,growth at 10 µM,[14],107%
CCCCCCCCCCCCCCCC(=O)NCCCC[C@H](NC(=O)[C@H](C)NC(=O)[C@H](CCCCN)NC(=O)[C@H](C)NC(=O)[C@H](CC(C)C)NC(=O)[C@H](CCCCN)NC(=O)[C@H](C)NC(=O)[C@H](CC(C)C)NC(=O)[C@H](CCCCN)NC(=O)[C@H](CCCCN)NC(=O)[C@H](C)NC(=O)[C@H](CC(C)C)NC(=O)[C@H](CCCCN)NC(=O)[C@H](C)NC(=O)[C@H](CC(C)C)NC(=O)[C@H](CCCCN)NC(=O)[C@@H](N)CC(=O)O)C(N)=O,growth at 7.25 µM,[15],105%
same,growth at 7.25 µM,[16],102%
same,growth at 7.25 µM,[17],92.3%
same,growth at 7.25 µM,[18],123%
same,growth at 7.25 µM,[19],98.3%
same,growth at 7.25 µM,[20],92.4%
same,growth at 7.25 µM,[21],104%
same,growth at 7.25 µM,[22],87.3%
same,growth at 7.25 µM,[23],106%
same,growth at 7.25 µM,[24],102%
same,growth at 7.25 µM,[25],122%
same,growth at 7.25 µM,[26],111%
same,growth at 7.25 µM,[27],73.1%
same,growth at 7.25 µM,[28],108%
same,growth at 7.25 µM,[29],97.6%
CCCCCCCCCCCCCCCCNCCO[C@H]1C[C@H](n2cc(C)c(=O)[nH]c2=O)O[C@@H]1C(=O)NCCCC[C@H](NC(=O)[C@H](C)NC(=O)[C@H](CCCCN)NC(=O)[C@H](C)NC(=O)[C@H](CC(C)C)NC(=O)[C@H](CCCCN)NC(=O)[C@H](C)NC(=O)[C@H](CC(C)C)NC(=O)[C@H](CCCCN)NC(=O)[C@H](CCCCN)NC(=O)[C@H](C)NC(=O)[C@H](CC(C)C)NC(=O)[C@H](CCCCN)NC(=O)[C@H](C)NC(=O)[C@H](CC(C)C)NC(=O)[C@H](CCCCN)NC(=O)[C@@H](N)CC(=O)O)C(N)=O,growth at 2.13 µM,[30],96.5%
same,growth at 2.13 µM,[31],109%
same,growth at 2.13 µM,[32],103%
same,growth at 2.13 µM,[33],105%
same,growth at 2.13 µM,[34],104%
same,growth at 2.13 µM,[35],109%
same,growth at 2.13 µM,[36],102%
same,growth at 2.13 µM,[37],97.7%
same,growth at 2.13 µM,[38],75.8%
same,growth at 2.13 µM,[39],97.8%
same,growth at 2.13 µM,[40],111%
